# Laboratory results: patent US20210108198A1, “APPLICATION OF COMPOUND OR TRADITIONAL CHINESE MEDICINE EXTRACT IN PREPARATION OF NUCLEIC ACID DELIVERY AGENT AND RELATED PRODUCTS THEREOF” (INSTITUTE OF BASIC MEDICAL SCIENCES CHINESE ACADEMY OF …, priority 2017, published 2021)
# “Also recorded” adds a separate entry of the source.
# Tests used:
# A549 cell = assay: RT-qPCR detection of nucleic acid delivered by lipid into A549 cells; assay type: cell-based, human; conditions: double-stranded HJT-sRNA-m7 100 nM; reverse evaporation method; 12 hours; FIG. 99
# Procedure: 3.1 NCI-N87 cell (gastric cancer cell), MRC-5 cell (lung fibroblast), A549 cell (lung cancer cell) were cultured to logarithmic growth phase, and then plated to a six-well plate at cell density of 1×10^6/2 mL medium/well; MRC-5 cell was cultured in Eagle's MEM medium (MEM, Gibco); A549 cell was cultured in Ham's F-12 medium (HyClone); NCI-N87 cell was cultured in RPMI-1640 medium (HyClone); followed by incubation overnight at 37° C., and the follow-up experiments were performed after the cells were attached to the walls.
# 4) Lipid nucleic acid mixture: the mixture of lipid and HJT-sRNA-m7 prepared from the step 2 were added into cells and mixed, and the final concentration of RNA was kept at 200 nM.
# 3.3 After co-incubation with the small RNA for 3 hours, the cells were washed 2-3 times with PBS. The cells were harvested with TRIzol lysis buffer, and the total RNA was extracted. The abundance of small RNA that entered cells was detected by RT-qPCR, and the localization of RNA was detected by fluorescence in situ hybridization; protocols of each detection method were as follows:
# 3.3.1 RT-qPCR Detection of Small RNA (Taqman Probe Method)
# 3.3.2 RT-qPCR Detection of Small RNA (SYBR Green Dye Method)
# Mixtures of soybean PC, lipid No. 11 (18:0/18:2) and lipid No. 12 (16:0/18:2), and various small RNA (see below Table 3) were prepared by the reverse evaporation method and then added into A549 cell line (the final concentration of sRNA was 200 nM); the negative control group (control) was directly added with the same concentration of sRNA; the positive control group (RNAimax) was transfected with Lipofectamine RNAimax (transfection reagent 6 μl/well). The abundance of sRNA in the cells was detected by Taqman probe after 3 hours, and the relative expression level of sRNA was calculated by 2-ΔCt method.
# 3.1.3 After co-incubation with cells for 12-24 hours, the cells were washed twice with PBS. The cells were harvested with TRIzol lysis buffer (purchased from Sigma-Aldrich), and total RNA was extracted. The abundance of HJT-sRNA-m7 that entered the cells was detected by RT-qPCR; the protocols were as follows:
# 4368813) was used to reverse transcribe sRNA to cDNA by stem-loop method (see, e.g. Real-time quantification of microRNAs by stem-loop RT-PCR, Nucleic Acids Res. 2005 Nov. 27; 33(20):e179, incorporated by reference herein).
# [1] = system: fibronectin protein expression in MRC-5 cells; assay: Western blot of fibronectin after lipid-mediated delivery of anti-fibrotic HJT-sRNA into TGF-β1 stimulated MRC-5 cells; assay type: cell-based; conditions: nucleic acid 400 nM; TGF-β1 3 ng/mL; preparation method not given; FIG. 102
# Procedure: 3.3.1 MRC-5 cell (pulmonary embryonic fibroblast), and A549 cell (human lung adenocarcinoma cell) were cultured to logarithmic growth phase, and then plated into 12-well plates at a cell density of 6×10^5/1 mL medium/well; MRC-5 cells were cultured in Eagle's MEM medium (MEM, Gibco); A549 cells were cultured in Ham's F-12 medium (HyClone); followed by incubation overnight at 37° C., and the follow-up experiments were performed after the cells were attached to the walls.
# 4) Lipid nucleic acid mixture: the mixture of lipid and nucleic acid prepared from the step 2 were added into cells and mixed, and the final concentration of nucleic acid was 400 nM.
# 3.3.3 After 24 hours of treatment, the cells were stimulated with the stimulant (1 μg/mL poly (I:C) (P1530, Sigma-Aldrich) as double-stranded RNA viruses mimetics) or 3 ng/mL transforming growth factor TGFβ1 (Pepro Tech)). […]
# A549 cells [2] = assay: Digital PCR (ddPCR) detection of the efficiency of nucleic acid delivery by lipid; assay type: cell-based, human
# Procedure: (§1) 2.2 Experimental method: the total cellular RNA was collected and extracted by TRIzol lysis buffer according to the above methods, and reverse transcribed to cDNA using High capacity cRNA Reverse Transcription Kit, and the cDNA from different groups was subject to digital PCR reaction. Refering to the QX200 Droplet Reader and QuantaSoft Software manual for the protocols, the results were analyzed using QuantaSoft software.
# as §1, with “method:” for “method: the”, “total” for “total cellular”, “method,” for “methods,”, “subjected” for “subject”, “Refer” for “Refering”, “protocols;” for “protocols,”
# (§2) 2.2 Experimental method: Total RNA was collected and extracted by TRIzol lysis buffer according to the above method, and reverse transcribed to cDNA using TaqMan™ MicroRNA Reverse Transcription KitHigh, and the cDNA from different groups was subjected to digital PCR reaction. Refer to the QX200 Droplet Reader and QuantaSoft Software manual for the protocols; the results were analyzed using QuantaSoft software.
# as §2, with “reversed” for “reverse transcribed”, “High capacity cRNA” for “TaqMan™ MicroRNA”, “Kit,” for “KitHigh,”
# A549 cells [3] = assay: Confocal fluorescence microscopy of nucleic acid delivered by lipid in cells; assay type: cell-based, human; conditions: 4 μl lipid, boiling method; 6 hours of co-incubation
# Procedure: Experimental materials: A549 cells (purchased from the Cell Center of the Chinese Academy of Medical Sciences), PGY-sRNA-6-Cy3 (purchased from Ribobio Biotechnology Co., Ltd.), lipid No. 41, Zeiss LSM780 (purchased from Zeiss, Germany), Alexa Fluor® 488 phalloidin (purchased from Invitrogen, USA), DAPI (purchased from Invitrogen, USA), paraformaldehyde (purchased from sigma, USA).
# (§3) Experimental methods: PGY-sRNA-6-FAM was dissolved in 100 μl water, mixed with 4 μl lipid, and prepared by the boiling method. Then the mixture was dropped into A549 cells, and after 6 hours of co-incubation, the samples were washed three times with PBS, fixed with 4% paraformaldehyde, washed three times with PBS, stained with Alexa Fluor® 488 phalloidin for 30 min, washed 3 times with PBS, and stained with DAPI for 5 min, washed with PBS, and then sealed.
# as §3, with “method:” for “methods:”, “water, and” for “water,”, “by” for “by the”, “Then,” for “Then”, “PBS washed,” for “washed with PBS,”
# [4] = In vivo delivery of single-stranded sRNA by single lipid via gavage (blood, stomach, small intestine, liver); set-up: species or system C57 mice; conditions: 10 μl lipid, 1 nmol each sRNA (PGY-sRNA-23/-26/-32), heating method, 6 hours or 12 hours after administration
# Text: Tissues sampled: live/stomach/small intestine.
structure (smiles),measurement,setting,value
"CCCCCCCC/C=C\CCCCCCCCCCCC(=O)O[C@H](COC(=O)CCCCCCCCCCCCCCC)COP(=O)(O)OCCN [No. 40, (2-aminoethoxy)[(2R)-2-[(13Z)-docos-13-enoyloxy]-3-(hexadecanoyloxy)propoxy]phosphinic acid]",delivery effect relative to RNAiMAX (real-time PCR),A549 cell,½
same,fibronectin protein expression after delivery of double-stranded HJT-sRNA-m7 (Western blot),[1],to down-regulate fibronectin protein expression
same,delivery of HJT-sRNA-m7 dsRNA (ddPCR),"A549 cells [2]; boiling method, 6 hours",could effectively deliver HJT-sRNA-m7 dsRNA into A549 cells
same,delivery of HJT-sRNA-m7 dsRNA (ddPCR),"A549 cells [2]; reverse evaporation method, 6 hours (No. 39: 6 hours, 12 hours)",could effectively deliver HJT-sRNA-m7 dsRNA into A549 cells
same,entry of PGY-sRNA-6-Cy3 observed under the confocal microscopy,A549 cells [3],could effectively deliver single-stranded RNA into A549 cells
same,entry of single-stranded small RNA into mouse blood (RT-qPCR),[4],could effectively deliver sRNA single-stranded nucleic acid into mouse blood via oral administration; also recorded: the delivery effect was better than POPC and Lipofectamine RNAiMAX
